Laboratory results taken from article PMC8689140 (Frontiers in Pharmacology, 2021).

Key:
rat brain VMAT2 = molecular target: T1, rat brain VMAT2 (Rattus norvegicus, UniProt Q01827); experiment: VMAT2 binding assay (inhibition of [3H]HTBZ binding); settings: ratio of Ki vs HTBZ
T1 construct: the whole rat brain (excluding the cerebellum) or striatal were homogenized; tissue Eurofins Panlabs (assay performed by); host or cells: rat brain (without cerebellum) or striatum, synaptic vesicle suspension
Procedure: In brief, the whole rat brain (excluding the cerebellum) or striatal were homogenized in 20 ml of ice-cold sucrose solution (0.32 M). […] The samples were centrifuged at 20,000 g at 4°C for 20 min, then 20 ml of MgSO4 solution (1 mM) was added to the supernatant.
A 96-well plate was used for the assay in duplicate. […] Samples were preincubated for 30 min at room temperature. […] All reactions were terminated using vacuum filtration over a GF/B glass fiber filter pretreated with 0.5% BSA. […] Radioactivity retained on the filters was determined by liquid scintillation counter. […] IC50 values were determined by a nonlinear least-squares regression analysis and Ki was calculated.

[1] = PK in dogs after single oral or intravenous dose; assay type: in vivo, dog
Procedure: Male beagle dogs were randomly divided into four groups. […] The dogs were fasted for 12 h before treatment and 4 h after treatment, but they were granted free access to water. Blood was collected from the vein before administration and 0.083 (only for injection groups), 0.25, 0.5, 1, 2, 3, 4, 6, 8, 12 and 24 h, and placed it in heparinized tubes, and centrifuged it at 8,000 rpm for 10 min at 4°C to separate the plasma, which we stored at −20 °C until analysis. The plasma samples were pretreated by protein precipitation with acetonitrile and quantitated by the validated LC-MS/MS (Shimadzu Exion-Triple Quad 4500) method.
The system consisted of an Exion UHPLC system (Shimadzu, Japan) and a Triple Quad 4500 mass spectrometer (AB Sciex, United States) with an electrospray ionization source. Multiple reaction monitoring in the positive ionization mode was applied to measure analytes. Chromatographic separation was performed on a Acquity BEH C18 column (50 × 2.1 mm i. d., 1.7 μm, Waters, United States). The mobile phase was composed of 0.1% FA in water (A) and 0.1% FA in acetonitrile (B), and the flow rate was 0.4 ml/min. The elution conditions were the following linear gradient: 0–0.4 min: 90% A, 0.4–0.6 min: 60% A, 0.6–1.2 min: 10% A, 1.2–2.2 min: 10% A, 2.2–2.3 min: 90% A, 2.3–3.0 min: 90% A. The optimized parameters were as follows: the spray voltage 5.5 kV, source temperature 550 °C, pressure of source gas 1 and gas 2: 55psi, pressure of curtain gas: 30psi, and the DP, EP and CE voltage was 30,6 and 40 eV, respectively.

T1 sequence (Q01827 whole entry): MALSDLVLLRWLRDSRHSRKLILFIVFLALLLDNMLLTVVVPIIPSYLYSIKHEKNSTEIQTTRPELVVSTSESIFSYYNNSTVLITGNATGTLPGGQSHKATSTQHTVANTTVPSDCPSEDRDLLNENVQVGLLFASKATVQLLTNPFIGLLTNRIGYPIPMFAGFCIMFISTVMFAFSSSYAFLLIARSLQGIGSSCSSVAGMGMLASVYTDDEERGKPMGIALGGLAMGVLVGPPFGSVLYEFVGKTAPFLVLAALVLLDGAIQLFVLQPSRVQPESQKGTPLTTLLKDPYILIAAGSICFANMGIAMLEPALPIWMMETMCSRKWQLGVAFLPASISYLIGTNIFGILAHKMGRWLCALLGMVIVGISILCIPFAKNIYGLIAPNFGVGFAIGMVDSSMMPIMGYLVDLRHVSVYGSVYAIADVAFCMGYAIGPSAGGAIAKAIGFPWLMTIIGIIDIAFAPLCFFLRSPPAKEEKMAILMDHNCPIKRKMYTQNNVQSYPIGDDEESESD

## COc1cc2c(cc1OCC(F)(F)F)CCN1CC(CC(C)C)C(O)CC21 (single isomer, unassigned; (+)) [(+)-13e, (+)-9-(2,2,2-trifluoroethoxy)-α-dihydrotetrabenazine]
Rat brain VMAT2
  affinity for VMAT2 stronger than that of HTBZ: ~3 fold
[1]; dog, single intravenous dose 0.6 μmol/kg
  V, V/F: 5.4 ± 1.1 L/kg
[1]; dog, single intravenous dose 0.6 μmol/kg, read-out: Cl, Cl/F (converted)
  clearance: 23.3 mL/min/kg
[1]; dog, single oral dose 3 μmol/kg
  V, V/F: 18.8 ± 9.2 L/kg
[1]; dogs, oral administration at an equivalent dose
  Cmax smaller than that of VBZ: 2.9 fold
[1]; dogs, oral administration at an equivalent dose (HTBZ from VBZ)
  Cmax larger than that of HTBZ: 7.7 fold
[1]; male, beagle, dog, plasma, dogs, oral 3 μmol/kg vs intravenous 0.6 μmol/kg, read-out: absolute oral bioavailability
  bioavailability: 75.9%
[1]; male, beagle, plasma, 3 umol/kg, dog, single oral dose 3 μmol/kg
  CL/F: 31.7 mL/min/kg
